Experimental data published in patent US20090099502A1, “Microneedle Device And Transdermal Administration Device Provided With Microneedles” (HISAMITSU PHARMACEUTICAL CO., INC., priority 2006, published 2009).
“Also recorded” adds a separate entry of the source. Counter-ions that a name gives are not always drawn.

Experiments:
hairless rat skin [1] = assay: Skin permeation tests with a drug in its free and salt forms using hairless rats (Example 7); details: both the fumarate and the free form, PVA117 coating
Excerpt: (§1) A piece of foam tape (#9773, 7.84 cm^2) of 3M Company was pasted on the back side of the microneedle substrate in such a way that the adhesive layer of the tape would face the skin. The projecting ends of the tape were attached to the skin to bring the microneedle side of the microneedle substrate in close contact with the skin. To start the experiment, the microneedle substrate was placed on the skin and pressure applied (2 kg/patch for 5 seconds) on the substrate with a finger.
(§2) Microneedles (800 piles/patch) were coated all over their surfaces with 30 μl/patch one of the coating carriers, and dried at room temperature for 12 h for fixing. Skin removed from hairless rats was pierced with microneedles coated with the drug formulations, including those having their free forms, and samples were removed periodically. Phosphate buffer solution (PBS) was used for the receptor layer. The receptor solution sample, sampled at different time points, and acetonitrile were mixed at 1:1 ratio, stirred, centrifuged (15,000 rpm, 5° C., 5 minutes), then the supernatant was recovered, and its drug content measured by HPLC.
Animal species: Hairless rat (n=3)

hairless rat skin [2] = tested on: hairless rat skin
Excerpt: as §1, §2
Animal species: Hairless rat (n=3)

[3] = whether in the free or the salt form; cited from earlier work
hairless rat skin [4] = assay: Skin permeation test of granisetron hydrochloride, blister-type drug product (Example 5); type: in vitro ADME; details: in examples 4 and 5
Protocol: In this experiment, the coating carrier was prepared for the entire surface of microneedles by using only 5 wt. % polyvinyl alcohol (PVA117), and the microneedles (800 pile/patch) were coated all over the surface with 30 μl/patch and dried for 12 h at room temperature for fixing. After piercing the skin with the microneedles, […] 32 wt. % aqueous solution of granisetron hydrochloride, 30 μl, was applied through the through-holes (openings) on the microneedle substrate. There were two control groups. In one of these, the microneedles were not given any coating and 30 μl of the drug solution alone was applied through the through-holes. In the other control group, an aqueous solution containing 5 wt. % of polyvinyl alcohol and 32 wt. % of granisetron hydrochloride was prepared, as before, as the coating carrier, and the microneedles (800 piles/patch) were coated all over the surface with 15 μl/patch of this coating carrier.
Skin was then removed from the trunk of a hairless rat and fitted to a vertical acrylic cell (2.54 cm^2) with the dermis side facing the receptor layer, and the whole assembly was placed in a constant temperature chamber set at 37° C. […] The drug content of the receptor solution obtained at each time of sampling was measured by HPLC (Excitation: 298 nm, fluorescence: 353 nm). […]

SMILES	skin permeability (hairless rat skin [1])	maximum flux, salt form compared with free form (hairless rat skin [2])	maximum flux, Free form (hairless rat skin [2]; hairless, rat, 16 wt. %)	maximum flux, Salt (hairless rat skin [2]; hairless, rat, 16 wt. %)	solubility in water [3]	amount of drug permeation (hairless rat skin [2]; hairless, rat, 16 wt. %)	skin permeability (hairless rat skin [4])
CC(C)NCC(O)COc1ccc(COCCOC(C)C)cc1 (stereo not drawn) [Bisoprolol, bisoprolol]	good skin permeability	higher maximum flux in their salt form than in their free form	60 μg/cm^2/hr	90 μg/cm^2/hr			
CCCN1C[C@H](CSC)C[C@@H]2c3cccc4[nH]cc(c34)C[C@H]21 [Pergolide, pergolide]			0.1< μg/cm^2/hr	0.1< μg/cm^2/hr	almost no solubility in water; also recorded: extremely low solubility	about 1 μg	
CCCN[C@H]1CCc2nc(N)sc2C1 [Pramipexol, pramipexol]		higher maximum flux in their salt form than in their free form	100 μg/cm^2/hr	180 μg/cm^2/hr			
CN1C2CCCC1CC(NC(=O)c1nn(C)c3ccccc13)C2 (stereo not drawn) [granisetron hydrochloride]							good skin permeability
